Data: PubChem BioAssay (NCI)
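Where inhibition never reached the appropriate level, the endpoint shown equals the highest concentration tested. Otherwise, values were interpolated linearly from a five-concentration, 48-hour dose response in 96-well plates. GI50 is the concentration that inhibits growth by half. TGI denotes the concentration required for complete inhibition of growth.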

How the values were obtained:
Test in all cases: growth of human tumour cells (NCI), 48 h
MDA-MB-231 breast = tested on: MDA-MB-231 breast
EKVX NSCLC = tested on: EKVX NSCLC
PC-3 prostate = tested on: PC-3 prostate
SN12C renal = tested on: SN12C renal
DU-145 prostate = tested on: DU-145 prostate
IGROV1 ovarian = tested on: IGROV1 ovarian
UACC-62 melanoma = tested on: UACC-62 melanoma
SW-620 colon = tested on: SW-620 colon
HOP-92 NSCLC = tested on: HOP-92 NSCLC
HOP-62 NSCLC = tested on: HOP-62 NSCLC
OVCAR-8 ovarian = tested on: OVCAR-8 ovarian
K-562 leukemia = tested on: K-562 leukemia
RPMI-8226 leukemia = tested on: RPMI-8226 leukemia
MCF7 breast = tested on: MCF7 breast
LOX IMVI melanoma = tested on: LOX IMVI melanoma
COLO 205 colon = tested on: COLO 205 colon
SF-268 CNS = tested on: SF-268 CNS
786-0 renal = tested on: 786-0 renal
HCT-15 colon = tested on: HCT-15 colon
KM12 colon = tested on: KM12 colon
SNB-75 CNS = tested on: SNB-75 CNS
NCI/ADR-RES ovarian = tested on: NCI/ADR-RES ovarian
ACHN renal = tested on: ACHN renal
NCI-H460 lung = tested on: NCI-H460 lung
HS 578T breast = tested on: HS 578T breast
CAKI-1 renal = tested on: CAKI-1 renal
SF-295 CNS = tested on: SF-295 CNS
MDA-MB-435 = tested on: MDA-MB-435
SK-MEL-5 melanoma = tested on: SK-MEL-5 melanoma
TK-10 renal = tested on: TK-10 renal
RXF 393 renal = tested on: RXF 393 renal
SK-OV-3 ovarian = tested on: SK-OV-3 ovarian
M14 melanoma = tested on: M14 melanoma
UO-31 renal = tested on: UO-31 renal
HT29 colon = tested on: HT29 colon
A549 NSCLC = tested on: A549 NSCLC
NCI-H226 lung = tested on: NCI-H226 lung
CCRF-CEM leukemia = tested on: CCRF-CEM leukemia
OVCAR-5 ovarian = tested on: OVCAR-5 ovarian
OVCAR-3 ovarian = tested on: OVCAR-3 ovarian
HL-60(TB) leukemia = tested on: HL-60(TB) leukemia
UACC-257 melanoma = tested on: UACC-257 melanoma
NCI-H522 lung = tested on: NCI-H522 lung
SK-MEL-2 melanoma = tested on: SK-MEL-2 melanoma
SNB-19 CNS = tested on: SNB-19 CNS
BT-549 breast = tested on: BT-549 breast
MALME-3M melanoma = tested on: MALME-3M melanoma
SF-539 CNS = tested on: SF-539 CNS
A498 renal = tested on: A498 renal
U251 CNS = tested on: U251 CNS
MOLT-4 leukemia = tested on: MOLT-4 leukemia
SK-MEL-28 melanoma = tested on: SK-MEL-28 melanoma
HCT-116 colon = tested on: HCT-116 colon
HCC-2998 colon = tested on: HCC-2998 colon
T-47D breast = tested on: T-47D breast
OVCAR-4 ovarian = tested on: OVCAR-4 ovarian

N#Cc1c(-c2ccc(Cl)cc2)nc(SCc2ccccc2)nc1N1CCNCC1
GI50 (MDA-MB-231 breast): 1.73 µM
TGI (MDA-MB-231 breast): 3.37 µM
GI50 (EKVX NSCLC): 1.52 µM
TGI (EKVX NSCLC): 2.89 µM
GI50 (PC-3 prostate): 1.61 µM
TGI (PC-3 prostate): 3.08 µM
GI50 (SN12C renal): 1.77 µM
TGI (SN12C renal): 3.27 µM
GI50 (DU-145 prostate): 1.7 µM
TGI (DU-145 prostate): 3.07 µM
GI50 (IGROV1 ovarian): 1.61 µM
TGI (IGROV1 ovarian): 3.06 µM
GI50 (UACC-62 melanoma): 1.77 µM
TGI (UACC-62 melanoma): 3.21 µM
GI50 (SW-620 colon): 1.69 µM
TGI (SW-620 colon): 3.22 µM
GI50 (HOP-92 NSCLC): 1.06 µM
TGI (HOP-92 NSCLC): 2.39 µM
GI50 (HOP-62 NSCLC): 1.75 µM
TGI (HOP-62 NSCLC): 3.4 µM
GI50 (OVCAR-8 ovarian): 1.63 µM
TGI (OVCAR-8 ovarian): 3.03 µM
GI50 (K-562 leukemia): 1.77 µM
TGI (K-562 leukemia): 5.81 µM
GI50 (RPMI-8226 leukemia): 1.9 µM
TGI (RPMI-8226 leukemia): 4.49 µM
GI50 (MCF7 breast): 1.59 µM
TGI (MCF7 breast): 3.2 µM
GI50 (LOX IMVI melanoma): 2.05 µM
TGI (LOX IMVI melanoma): 3.55 µM
GI50 (COLO 205 colon): 1.65 µM
TGI (COLO 205 colon): 3.04 µM
GI50 (SF-268 CNS): 1.62 µM
TGI (SF-268 CNS): 3.2 µM
GI50 (786-0 renal): 1.42 µM
TGI (786-0 renal): 2.96 µM
GI50 (HCT-15 colon): 1.6 µM
TGI (HCT-15 colon): 3.02 µM
GI50 (KM12 colon): 1.77 µM
TGI (KM12 colon): 3.29 µM
GI50 (SNB-75 CNS): 1.33 µM
TGI (SNB-75 CNS): 2.68 µM
GI50 (NCI/ADR-RES ovarian): 1.6 µM
TGI (NCI/ADR-RES ovarian): 3.18 µM
GI50 (ACHN renal): 1.67 µM
TGI (ACHN renal): 3.04 µM
GI50 (NCI-H460 lung): 1.72 µM
TGI (NCI-H460 lung): 3.19 µM
GI50 (HS 578T breast): 1.89 µM
TGI (HS 578T breast): 4.2 µM
GI50 (CAKI-1 renal): 1.48 µM
TGI (CAKI-1 renal): 2.81 µM
GI50 (SF-295 CNS): 1.75 µM
TGI (SF-295 CNS): 3.16 µM
GI50 (MDA-MB-435): 1.7 µM
TGI (MDA-MB-435): 3.1 µM
GI50 (SK-MEL-5 melanoma): 1.76 µM
TGI (SK-MEL-5 melanoma): 3.14 µM
GI50 (TK-10 renal): 1.51 µM
TGI (TK-10 renal): 2.89 µM
GI50 (RXF 393 renal): 1.58 µM
TGI (RXF 393 renal): 3.02 µM
GI50 (SK-OV-3 ovarian): 1.87 µM
TGI (SK-OV-3 ovarian): 3.57 µM
GI50 (M14 melanoma): 1.65 µM
TGI (M14 melanoma): 3.08 µM
GI50 (UO-31 renal): 1.35 µM
TGI (UO-31 renal): 2.64 µM
GI50 (HT29 colon): 1.65 µM
TGI (HT29 colon): 3.02 µM
GI50 (A549 NSCLC): 1.55 µM
TGI (A549 NSCLC): 2.99 µM
GI50 (NCI-H226 lung): 1.84 µM
TGI (NCI-H226 lung): 3.53 µM
GI50 (CCRF-CEM leukemia): 1.97 µM
TGI (CCRF-CEM leukemia): 4.51 µM
GI50 (OVCAR-5 ovarian): 1.64 µM
TGI (OVCAR-5 ovarian): 3.02 µM
GI50 (OVCAR-3 ovarian): 1.73 µM
TGI (OVCAR-3 ovarian): 3.18 µM
GI50 (HL-60(TB) leukemia): 1.44 µM
TGI (HL-60(TB) leukemia): 3.71 µM
GI50 (UACC-257 melanoma): 1.55 µM
TGI (UACC-257 melanoma): 2.96 µM
GI50 (NCI-H522 lung): 1.5 µM
TGI (NCI-H522 lung): 2.9 µM
GI50 (SK-MEL-2 melanoma): 1.6 µM
TGI (SK-MEL-2 melanoma): 3.02 µM
GI50 (SNB-19 CNS): 1.61 µM
TGI (SNB-19 CNS): 3.08 µM
GI50 (BT-549 breast): 1.69 µM
TGI (BT-549 breast): 3.14 µM
GI50 (MALME-3M melanoma): 1.71 µM
TGI (MALME-3M melanoma): 3.32 µM
GI50 (SF-539 CNS): 1.78 µM
TGI (SF-539 CNS): 3.2 µM
GI50 (A498 renal): 1.69 µM
TGI (A498 renal): 3.37 µM
GI50 (U251 CNS): 1.58 µM
TGI (U251 CNS): 2.94 µM
GI50 (MOLT-4 leukemia): 1.6 µM
TGI (MOLT-4 leukemia): 3.69 µM
GI50 (SK-MEL-28 melanoma): 1.78 µM
TGI (SK-MEL-28 melanoma): 3.19 µM
GI50 (HCT-116 colon): 1.64 µM
TGI (HCT-116 colon): 3.12 µM
GI50 (HCC-2998 colon): 1.6 µM
TGI (HCC-2998 colon): 3.03 µM
GI50 (T-47D breast): 1.65 µM
TGI (T-47D breast): 3.26 µM
GI50 (OVCAR-4 ovarian): 1.64 µM
TGI (OVCAR-4 ovarian): 3.08 µM
